Experiment: Salt/co-crystal screening: 38 acids, eight solvent systems, solids analysed by XRPD
Format: physicochemical
Details: acid/freebase charge 1:1 unless label says 2:1, stirred at RT, else 5° C. slurry, anti-solvent addition or evaporation (footnote marks)
Description: XRPD analysis was performed with a Panalytical X'Pert^3 Powder XRPD on a Si zero-background holder. The 2θ position was calibrated against Panalytical Si reference standard disc.
A total of 320 salt/co-crystal screening experiments were conducted using 38 acids (two molar ratios for HCl and HBr) and eight solvent systems. Specifically, freebase stock solutions of ˜100 mg/mL were first prepared in each solvent system. For each experiment, 0.2 mL stock solution and the corresponding acids were mixed in a molar charge ratio of 1:1 (acid/freebase, 2:1 for HCl/freebase and HBr/freebase as well), and then stirred at RT. After stirring for 3-5 days, if precipitation was observed, the precipitate was isolated. It no precipitation, the clear solutions were first transferred to slurry at 5° C. to introduce precipitation. Solutions without any precipitation were further subjected to anti-solvent addition (for solvents in column B/D, 0.5 mL hexane was added; for solvents in column G/H, 0.5 mL water was added; for solvent in column F, 0.5 mL n-heptane was added). If still no precipitation, the final clear solutions were transferred to evaporation at RT to induce precipitation. All solids isolated were vacuum dried at RT for 2 hrs before XRPD analysis.

Row | Structure (SMILES) | Solid obtained in salt screening (XRPD), solvent D Acetone/Hexane (1:2, v/v) | Solid obtained in salt screening (XRPD), solvent H Dioxane/H2O (9:1, v/v) | Solid obtained in salt screening (XRPD), solvent A Ethanol | Solid obtained in salt screening (XRPD), solvent B Ethyl acetate/Hexane (1:2, v/v) | Solid obtained in salt screening (XRPD), solvent G Methanol/H2O (19:1, v/v) | Solid obtained in salt screening (XRPD), solvent F Methyl tertbutyl ether | Solid obtained in salt screening (XRPD), solvent C THF | Solid obtained in salt screening (XRPD), solvent E Toluene
1 | Nc1ccc(C(=O)O)c(O)c1 [4-Aminosalicylic acid] | gel | gel | gel* | – | – | – | gel | gel
2 | O=C(O)c1ccccc1 [Benzoic acid] | gel* | amorphous* | gel* | gel* | amorphous* | amorphous* | gel* | gel*
3 | O=C(O)c1cc(O)ccc1O [Gentisic acid] | – | – | gel* | – | – | – | gel* | –
4 | O=C(O)[C@H](O)[C@@H](O)[C@H](O)[C@H](O)CO [Gluconic acid] | amorphous^& | amorphous* | amorphous* | gel* | amorphous* | amorphous | amorphous* | gel
5 | O=C(O)CCCC(=O)O [Glutaric acid] | amorphous* | amorphous* | gel* | amorphous* | amorphous* | amorphous^& | gel* | gel*
6 | Br.CCCCc1nc(-c2ccc(OCCCN(CC)CC)cc2)cn1-c1ccc(Oc2ccc(Cl)cc2)cc1 [HBr (1:1)] | – | gel* | – | – | – | – | – | –
7 | CCCCCC(=O)O [Hexanoic acid] | gel* | FB Type A* | gel | gel* | amorphous* | FB Type B^& | gel | gel
8 | O=C(O)c1cccnc1 [Nicotinic acid] | – | amorphous* | gel* | nicotinic acid | amorphous* | nicotinic acid | gel* | –
9 | CCCCCCCCCCCCCCCC(=O)O [Palmitic acid] | gel* | gel* | gel* | gel* | FB Type A^& | gel* | gel* | gel*

Other lines, results leading:

Row | Solid obtained in salt screening (XRPD), solvent D Acetone/Hexane (1:2, v/v) | Solid obtained in salt screening (XRPD), solvent H Dioxane/H2O (9:1, v/v) | Solid obtained in salt screening (XRPD), solvent A Ethanol | Solid obtained in salt screening (XRPD), solvent B Ethyl acetate/Hexane (1:2, v/v) | Solid obtained in salt screening (XRPD), solvent G Methanol/H2O (19:1, v/v) | Solid obtained in salt screening (XRPD), solvent F Methyl tertbutyl ether | Solid obtained in salt screening (XRPD), solvent C THF | Solid obtained in salt screening (XRPD), solvent E Toluene | Structure (SMILES)
10 | gel | amorphous* | amorphous* | gel* | amorphous* | gel | gel | gel | O=C(O)c1ccc2ccccc2c1O [1-hydroxy-2-naphthoic acid]
11 | FB Type B* | amorphous* | gel* | amorphous* | amorphous* | amorphous* | gel* | gel* | O=C(O)CCCCC(=O)O [Adipic acid]
12 | – | amorphous* | gel* | – | amorphous* | amorphous | amorphous^# | amorphous | O=C(O)CC(O)(CC(=O)O)C(=O)O [Citric acid]
13 | – | amorphous* | gel* | – | amorphous* | – | gel* | – | O=C(O)/C=C/C(=O)O [Fumaric acid]
14 | – | glutamic acid | glutamic acid | – | – | glutamic acid | – | – | N[C@@H](CCC(=O)O)C(=O)O [Glutamic acid]
15 | gel | gel* | gel* | gel | gel* | – | gel | amorphous* | O=S(=O)(O)O [H2SO4]
16 | amorphous* | amorphous* | gel* | – | amorphous* | – | gel* | gel* | O=C(O)CNC(=O)c1ccccc1 [Hippuric acid]
17 | gel | amorphous* | amorphous* | gel* | amorphous* | gel | gel | gel* | C[C@H](O)C(=O)O [L-lactic acid]
18 | gel | amorphous* | amorphous* | – | amorphous* | – | gel | gel | O=C(O)C[C@H](O)C(=O)O [L-malic acid]
19 | – | – | – | – | amorphous* | – | – | – | O=C(O)C(O)C(O)C(=O)O [L-tartartic acid]
20 | – | amorphous* | gel* | – | amorphous* | – | gel* | gel* | O=C(O)/C=C\C(=O)O [Maleic acid]
21 | amorphous* | amorphous* | gel* | amorphous* | amorphous* | gel* | gel* | gel* | O=C(O)CC(=O)O [Malonic acid]
22 | gel | gel* | gel* | – | gel* | amorphous | gel | gel* | CS(=O)(=O)O [Methane sulfonic acid]
23 | – | – | – | – | gel* | – | – | – | O=C(O)C(=O)O [Oxalic acid]
